The values below come from ChEMBL document CHEMBL1150788, “In vitro susceptibility of Sporothrix schenckii to six antifungal agents determined using three different methods” (2007).

In brackets after ≈: the same amount, converted by molar mass.

Holding throughout (type): functional
In assay [1] the test system is Sporothrix schenckii. The assay can be described thus: Antifungal activity against Sporothrix schenckii PSCC1 isolate from cutaneous-lymphatic sporotrichosis patient after 72 hrs by Sensititre YeastOne method.
The subject of assay [2] is Aspergillus flavus. The assay can be described thus: Antifungal activity against Aspergillus flavus ATCC 204304 […] after 72 hrs by Sensititre YeastOne method. Particulars: ATCC 204304, 72 h.
For assay [3], the system named is Sporothrix schenckii. The assay can be described thus: Antifungal activity against Sporothrix schenckii P10012 isolate from cutaneous-lymphatic sporotrichosis patient after 72 hrs by ATB Fungus 2 method.
Assay [4] deals with Pichia kudriavzevii. The assay is described as follows: Antifungal activity against Candida krusei ATCC 6258 […] after 72 hrs by Sensititre YeastOne method. Particulars: ATCC 6258, 72 h.
In assay [5] the test system is Aspergillus flavus. The assay can be described thus: Antifungal activity against Aspergillus flavus ATCC 204304 […] after 72 hrs by modified NCCLS M38-A method. The conditions noted are these: ATCC 204304, 72 h.
The test system of assay [6] is Sporothrix schenckii. The assay is described as follows: Antifungal activity against Sporothrix schenckii P1621 isolate from cutaneous-lymphatic sporotrichosis patient after 72 hrs by Sensititre YeastOne method.
The subject of assay [7] is Sporothrix schenckii. The assay can be described thus: Antifungal activity against Sporothrix schenckii SSA29 isolate from cutaneous-lymphatic sporotrichosis patient after 72 hrs by modified NCCLS M38-A method.
Assay [8] relates to Sporothrix schenckii. The assay can be described thus: Antifungal activity against Sporothrix schenckii SSA29 isolate from cutaneous-lymphatic sporotrichosis patient after 72 hrs by ATB Fungus 2 method.
Assay [9] concerns Sporothrix schenckii. The assay is described as follows: Antifungal activity against Sporothrix schenckii P30915 isolate from cutaneous-lymphatic sporotrichosis patient after 72 hrs by modified NCCLS M38-A method.
Assay [10] concerns Sporothrix schenckii. The assay can be described thus: Antifungal activity against Sporothrix schenckii PJRC002 isolate from cutaneous-lymphatic sporotrichosis patient after 72 hrs by modified NCCLS M38-A method.
Assay [11] concerns Sporothrix schenckii. The assay is described as follows: Antifungal activity against Sporothrix schenckii P24255 isolate from cutaneous-lymphatic sporotrichosis patient after 72 hrs by Sensititre YeastOne method.
The test system of assay [12] is Sporothrix schenckii. The assay is described as follows: Antifungal activity against Sporothrix schenckii PJRC002 isolate from cutaneous-lymphatic sporotrichosis patient after 72 hrs by ATB Fungus 2 method.
The test system of assay [13] is Sporothrix schenckii. The assay can be described thus: Antifungal activity against Sporothrix schenckii P3287 isolate from cutaneous-lymphatic sporotrichosis patient after 72 hrs by modified NCCLS M38-A method.
The subject of assay [14] is Sporothrix schenckii. The assay can be described thus: Antifungal activity against Sporothrix schenckii P30019 isolate from cutaneous-lymphatic sporotrichosis patient after 72 hrs by Sensititre YeastOne method.
In assay [15] the test system is Sporothrix schenckii. The assay can be described thus: Antifungal activity against Sporothrix schenckii P3287 isolate from cutaneous-lymphatic sporotrichosis patient after 72 hrs by ATB Fungus 2 method.
In assay [16] the test system is Sporothrix schenckii. The assay is described as follows: Antifungal activity against Sporothrix schenckii P1621 isolate from cutaneous-lymphatic sporotrichosis patient after 72 hrs by ATB Fungus 2 method.
Assay [17] concerns Sporothrix schenckii. The assay can be described thus: Antifungal activity against Sporothrix schenckii P24223 isolate from cutaneous-lymphatic sporotrichosis patient after 72 hrs by Sensititre YeastOne method.
The test system of assay [18] is Sporothrix schenckii. The assay can be described thus: Antifungal activity against Sporothrix schenckii PSSA81 isolate from cutaneous-lymphatic sporotrichosis patient after 72 hrs by modified NCCLS M38-A method.
Assay [19] has as its system Sporothrix schenckii. The assay is described as follows: Antifungal activity against Sporothrix schenckii PGAC0016 isolate from cutaneous-lymphatic sporotrichosis patient after 72 hrs by Sensititre YeastOne method.
The subject of assay [20] is Aspergillus flavus. The assay can be described thus: Antifungal activity against Aspergillus flavus ATCC 204304 […] after 72 hrs by ATB Fungus 2 method. The conditions noted are these: ATCC 204304, 72 h.
Assay [21] has as its system Sporothrix schenckii. The assay can be described thus: Antifungal activity against Sporothrix schenckii P30019 isolate from cutaneous-lymphatic sporotrichosis patient after 72 hrs by modified NCCLS M38-A method.
Assay [22] has as its system Sporothrix schenckii. The assay can be described thus: Antifungal activity against Sporothrix schenckii P3287 isolate from cutaneous-lymphatic sporotrichosis patient after 72 hrs by Sensititre YeastOne method.
Assay [23] concerns Pichia kudriavzevii. The assay can be described thus: Antifungal activity against Candida krusei ATCC 6258 […] after 72 hrs by modified NCCLS M38-A method. The conditions noted are these: ATCC 6258, 72 h.
Assay [24] deals with Candida parapsilosis. The assay can be described thus: Antifungal activity against Candida parapsilosis ATCC 22019 […] after 72 hrs by Sensititre YeastOne method. The conditions noted are these: Lodderomyces parapsilosis, ATCC 22019, 72 h.

Turning to `C[C@@H]1[C@H](O)[C@@H](C)/C=C/C=C/C=C/C=C/C=C/C=C/C=C/[C@H](O[C@@H]2O[C@H](C)[C@@H](O)[C@H](N)[C@@H]2O)C[C@@H]2O[C@](O)(C[C@@H](O)C[C@@H](O)[C@H](O)CC[C@@H](O)C[C@@H](O)CC(=O)O[C@H]1C)C[C@H](O)[C@H]2C(=O)O` [AMPHOTERICIN B], the minimal inhibitory concentration (MIC) (as a rule, the lowest concentration that inhibits growth of the organism) in assay [1] is 0.25 µg/mL (≈ 0.271 µM); in assay [2], 0.5 µg/mL (≈ 0.541 µM); in [3], no more than 0.5 µg/mL; in [4], 0.5 µg/mL (≈ 0.541 µM); in [5], 4 µg/mL (≈ 4.33 µM); in [6], 0.5 µg/mL (≈ 0.541 µM). Also, the minimum inhibitory concentration (MIC) in [7] was greater than 16 µg/mL; in assay [8], 2 µg/mL (≈ 2.16 µM); in assay [9] it was 0.25 µg/mL (≈ 0.271 µM); in assay [10], 4 µg/mL (≈ 4.33 µM); in assay [11], 0.5 µg/mL (≈ 0.541 µM); in assay [12], 1 µg/mL (≈ 1.08 µM). For the same molecule, the MIC was greater than 16 µg/mL in assay [13]; 1 µg/mL (≈ 1.08 µM) in assay [14]; 8 µg/mL (≈ 8.66 µM) in assay [15]; no more than 0.5 µg/mL in [16]; 0.5 µg/mL (≈ 0.541 µM) in assay [17]; 1 µg/mL (≈ 1.08 µM) in assay [18]. In addition, the minimum inhibitory concentration (MIC) in [19] was 0.125 µg/mL (≈ 0.135 µM); in [20] it was greater than 16 µg/mL; in [21], 1 µg/mL (≈ 1.08 µM); in assay [22], 0.5 µg/mL (≈ 0.541 µM).

Take `CCC(C)n1ncn(-c2ccc(N3CCN(c4ccc(OCC5COC(Cn6cncn6)(c6ccc(Cl)cc6Cl)O5)cc4)CC3)cc2)c1=O` (stereo unspecified) [ITRACONAZOLE]: the MIC stood at 1 µg/mL (≈ 1.42 µM) in [23]; 0.25 µg/mL (≈ 0.354 µM) in assay [1]; 0.25 µg/mL (≈ 0.354 µM) in assay [2]; 2 µg/mL (≈ 2.83 µM) in assay [3]; 1 µg/mL (≈ 1.42 µM) in [4]; 0.5 µg/mL (≈ 0.709 µM) in assay [5]. Moreover, the minimum inhibitory concentration (MIC) in assay [6] turned out to be 0.25 µg/mL (≈ 0.354 µM); in assay [7], 0.5 µg/mL (≈ 0.709 µM); in [8] it was 0.5 µg/mL (≈ 0.709 µM); in assay [9], 0.5 µg/mL (≈ 0.709 µM); in assay [10], 0.25 µg/mL (≈ 0.354 µM); in [11] it was 0.25 µg/mL (≈ 0.354 µM). The MIC in [12] was 1 µg/mL (≈ 1.42 µM); in [13], 0.25 µg/mL (≈ 0.354 µM); in assay [14] it was 0.25 µg/mL (≈ 0.354 µM); in assay [15], 2 µg/mL (≈ 2.83 µM); in [24] it was 0.25 µg/mL (≈ 0.354 µM); in assay [16], 2 µg/mL (≈ 2.83 µM). Besides, the MIC in [17] came out at 0.5 µg/mL (≈ 0.709 µM); in [18] it was 0.5 µg/mL (≈ 0.709 µM); in [19], 0.13 µg/mL (≈ 0.184 µM); in [20], 0.25 µg/mL (≈ 0.354 µM); in [21], 0.5 µg/mL (≈ 0.709 µM); in [22], 0.25 µg/mL (≈ 0.354 µM).

With `OC(Cn1cncn1)(Cn1cncn1)c1ccc(F)cc1F` [FLUCONAZOLE], the MIC was 128 µg/mL (≈ 418 µM) in assay [23]; greater than 256 µg/mL in [1]; greater than 128 µg/mL in assay [3]; 64 µg/mL (≈ 209 µM) in assay [4]; greater than 256 µg/mL in assay [6]; greater than 64 µg/mL in assay [7]. In addition, the MIC is greater than 128 µg/mL in [8]; greater than 64 µg/mL in [9]; greater than 64 µg/mL in assay [10]; greater than 256 µg/mL in assay [11]; greater than 256 µg/mL in assay [12]; greater than 64 µg/mL in assay [13]. The MIC in assay [14] was greater than 128 µg/mL; in assay [15] it was greater than 128 µg/mL; in assay [16], greater than 128 µg/mL; in assay [17], greater than 256 µg/mL; in [18], greater than 64 µg/mL; in assay [19] it was greater than 256 µg/mL. The MIC in [21] was greater than 64 µg/mL; in assay [22] it was greater than 256 µg/mL.
